Entries after “also recorded” stand apart in the source; their conditions may differ.

Consider 25 compounds from patent US10472346B2, “Potent gamma-secretase modulators” (The General Hospital Coporation, priority 2014, dated 2019).

In one data set the test system is Notch processing. The data set is described as follows: Notch processing in transfected H4-APP751 cells (Western blot, Myc antibody, NICD). As to conditions: 24 hrs; for Notch processing (NICD levels, Western blot): H4-APP751 cells transfected with the Notch NδED construct, 40 nM, 200 nM, 1000 nM, and 5000 nM. It counts as cell-based, human. From the text:
Cells were harvested 48 hrs post transfection and applied to Western blotting analysis. Myc antibody was utilized to assess the NAED and NICD tagged with Myc on their N-termini. β-Actin was utilized as the loading control.
Cells were harvested 48 hrs post transfection and subjected to Western blotting analysis. Myc antibody was utilized to assess the NδED and NICD tagged with Myc on their N-termini.
Stable H4 human neuroglioma cells over-expressing human APP751, or H4-APP751 cells, were transfected with the NAE construct, and then treated with different concentrations SGSM Compound 1 (Lanes 1-6) or DAPT (Lanes 7-10) for another 24 hrs and are shown in FIG. 9. Cells were harvested 48 hrs post transfection and applied to Western blotting analysis. Myc antibody was utilized to assess the NAED and NICD tagged with Myc on their N-termini β-Actin was utilized as the loading control.
Stably-transfected H4 human neuroglioma cells over-expressing human APP751 (H4-APP751) cells, were transfected with the Notch NδED construct, and then treated with vehicle, or different doses of GSMs (40 nM, 200 nM, 1000 nM, and 5000 nM) for 24 hrs. Cells were harvested 48 hrs post transfection and subjected to Western blotting analysis.

The subject of the next data set is Aβ42. The data set is described as follows: Aβ42 IC50 assay (SHSYSY-APP cell-based screening, UCSD sandwich Aβ42 ELISA). From the text:
FIG. 8: Representative concentration response curves of Compound 1 using our primary and orthogonal medium throughput SHSYSY-APP cell-based screening assays (10). Compounds are first screened two times in triplicate in our UCSD sandwich Aβ42 ELISA on sequential days and the average of the two assays must be within 3-fold of each other before being entered into the CDD relational database. The UCSD sandwich ELISA assay can easily handle 20 compounds per week. Compounds with Aβ42 IC50 values <100 nM continue through the testing funnel. The Z′ score and the % CV for the UCSD Aβ42 sandwich ELISA assay are 0.8 and 4, respectively. For the Meso Scale triplex assay the Z′ scores are 0.7, 0.9 and 0.6 Aβ42, Aβ40 and Aβ38, respectively and the % CV's are 7, 2 and 1 for Aβ42, Aβ40 and Aβ38, respectively. Aβ total peptides are measured using a sandwich ELISA.
Tabular Results of A1142 Assays Conducted on Compounds of Examples 5-102. Assays are Aβ42 IC50 (nM).

Compound `COc1nc(-c2ccc(N)nn2)ccc1-n1cnc(C)c1` [Example 24A, 6-(6-Methoxy-5-(4-methyl-1H-imidazol-1-yl)pyridin-2-yl)pyridazin-3-amine] displayed a melting point of more than 250 °C.
Consider `C[C@H](NC(=O)Cc1cc(F)cc(F)c1)C(=O)N[C@H](C(=O)OC(C)(C)C)c1ccccc1` [DAPT, reference compound], for which, in the data set with Notch processing (H4-APP751 cells transfected with the NAE construct, different concentrations), the “Notch processing (NICD, Western blot)” value is listed as “significantly inhibits Notch processing”. The “Notch processing (NICD levels, Western blot)” value in the data set with Notch processing is on record as “significantly inhibits Notch processing”.
In turn, `COc1nc(-c2cc(C)c(NCCc3ccc(F)cc3)nn2)ccc1-n1cnc(C)c1` [Example 50, N-(4-fluorophenethyl)-6-(6-methoxy-5-(4-methyl-1H-imidazol-1-yl)pyridin-2-yl)-4-methylpyridazin-3-amine] gave a melting point of 204 to 206 °C. In the data set with Aβ42, this compound came in with an IC50 of 38 nM.
`COc1nc(-c2ccc(NC(=O)c3ccc(F)cc3)nn2)ccc1-n1cnc(C)c1` [Example 24B, 4-Fluoro-N-(6-(6-methoxy-5-(4-methyl-1H-imidazol-1-yl)pyridin-2-yl)pyridazin-3-yl)benzamide]: the melting point was more than 250 °C. For the same compound, in the data set with Aβ42, the IC50 is more than 10000 nM.
For `COc1nc(-c2cc(C(C)C)c(NCc3ccc(F)cc3)nn2)ccc1-n1cnc(C)c1` [Example 13, N-(4-fluorobenzyl)-4-isopropyl-6-(6-methoxy-5-(4-methyl-1H-imidazol-1-yl)pyridin-2-yl)pyridazin-3-amine], in that order: 245 to 246 °C and 21 nM.
As for `COc1nc(-c2cc(C)c(N[C@@H](C)c3ccccc3F)nn2)ccc1-n1cnc(C)c1` [Example 34, (S)—N-(1-(2-fluorophenyl)ethyl)-6-(6-methoxy-5-(4-methyl-1H-imidazol-1-yl)pyridin-2-yl)-4-methylpyridazin-3-amine], the “Notch processing (NICD levels, Western blot)” value in the data set with Notch processing was “did not decrease the NICD levels at all concentrations studied; also recorded: not inhibit Notch processing”. In the data set on Aβ42, this compound showed an IC50 of 4.3 nM.
The compound `COc1nc(-c2ccc(NCc3ccc(F)cc3)nn2)ccc1-n1cnc(C)c1` [Example 26, N-(4-fluorobenzyl)-6-(6-methoxy-5-(4-methyl-1H-imidazol-1-yl)pyridin-2-yl)pyridazin-3-amine] had a melting point of 170 to 172 °C. Besides, half-maximal inhibition in the data set with Aβ42 (IC50) was put at 36 nM.
Take `COc1nc(-c2cc(C)c(N[C@@H](C)c3ccc(F)cc3F)nn2)ccc1-n1cnc(C)c1` [Example 45, (S)—N-(1-(2,4-difluorophenyl)ethyl)-6-(6-methoxy-5-(4-methyl-1H-imidazol-1-yl)pyridin-2-yl)-4-methylpyridazin-3-amine]: the “Notch processing (NICD levels, Western blot)” value in the data set on Notch processing is “did not decrease the NICD levels at all concentrations studied; also recorded: not inhibit Notch processing”. Also, in the data set on Aβ42, the IC50 was 2.5 nM.
Compound `COc1nc(-c2cc(C)c(N[C@@H]3C[C@H]3c3ccccc3)nn2)ccc1-n1cnc(C)c1` (racemic) [Example 72, (+/−)-trans-6-(6-methoxy-5-(4-methyl-1H-imidazol-1-yl)pyridin-2-yl)-4-methyl-N-(2-phenylcyclopropyl)pyridazin-3-amine] came in with a melting point of 99 to 102 °C. The IC50 with Aβ42 was 7.1 nM.
For `COc1nc(-c2cc(C)c(NC(C)C)nn2)ccc1-n1cnc(C)c1` [Example 65, N-isopropyl-6-(6-methoxy-5-(4-methyl-1H-imidazol-1-yl)pyridin-2-yl)-4-methylpyridazin-3-amine], in that order: 228 to 229 °C and 188 nM.
With `COc1nc(-c2ccc(N[C@@H](C)c3ccc(F)cc3)nn2)ccc1-n1cnc(C)c1` [Compound 2, (S)—N-(1-(4-Fluorophenyl)ethyl)-6-(6-methoxy-5-(4-methyl-1H-imidazol-1-yl)pyridin-2-yl)pyridazin-3-amine], the melting point was 96 to 102 °C.
The compound `COc1nc(-c2nnc(N[C@@H](C)c3ccccc3)cc2C)ccc1-n1cnc(C)c1` [Example 28, (S)-6-(6-methoxy-5-(4-methyl-1H-imidazol-1-yl)pyridin-2-yl)-5-methyl-N-(1-phenylethyl)pyridazin-3-amine] had a melting point of 140 to 143 °C. The compound further yielded an IC50 in the data set with Aβ42 of 18 nM.
Consider `COc1nc(-c2cc(C)c(N[C@H](CO)c3ccc(F)cc3)nn2)ccc1-n1cnc(C)c1` [Example 80, (S)-2-(4-fluorophenyl)-2-((6-(6-methoxy-5-(4-methyl-1H-imidazol-1-yl)pyridin-2-yl)-4-methylpyridazin-3-yl)amino)ethanol], for which 1100 nM corresponded to half-maximal inhibition in the data set with Aβ42 (IC50).
For `CC[C@@H](c1ccc(F)cc1)N(C)c1nnc(-c2ccc(-n3cnc(C)c3)c(OC)n2)cc1C` [Example 21, (S)—N-(1-(4-fluorophenyl)propyl)-6-(6-methoxy-5-(4-methyl-1H-imidazol-1-yl)pyridin-2-yl)-N,4-dimethylpyridazin-3-amine], the IC50 with Aβ42 turned out to be 61 nM.
The same measure, in the same setting: the figure for `COc1nc(-c2cc(C)c(N[C@@H](CO)c3ccc(F)cc3)nn2)ccc1-n1cnc(C)c1` [Example 71, (R)-2-(4-fluorophenyl)-2-((6-(6-methoxy-5-(4-methyl-1H-imidazol-1-yl)pyridin-2-yl)-4-methylpyridazin-3-yl)amino)ethanol] is 22 nM.
On the same count and under the same terms, to `COc1nc(-c2cc(C(C)C)c(N[C@@H](C)c3ccc(F)cc3)nn2)ccc1-n1cnc(C)c1` [Example 11, (S)—N-(1-(4-fluorophenyl)ethyl)-4-isopropyl-6-(6-methoxy-5-(4-methyl-1H-imidazol-1-yl)pyridin-2-yl)pyridazin-3-amine] belongs 7.5 nM.
As to `COc1cccc([C@H](C)Nc2nnc(-c3ccc(-n4cnc(C)c4)c(OC)n3)cc2C)c1` [Example 44, (S)-6-(6-methoxy-5-(4-methyl-1H-imidazol-1-yl)pyridin-2-yl)-N-(1-(3-methoxyphenyl)ethyl)-4-methylpyridazin-3-amine], 10.5 nM corresponded to half-maximal inhibition in the data set with Aβ42 (IC50). This IC50 and that of the compound before are within 1.5-fold of each other.
As for `COc1nc(-c2cc(C)c(N[C@H](C)c3ccc(F)cc3Cl)nn2)ccc1-n1cnc(C)c1` [Example 103, (R)—N-(1-(2-chloro-4-fluorophenyl)ethyl)-6-(6-methoxy-5-(4-methyl-1H-imidazol-1-yl)pyridin-2-yl)-4-methylpyridazin-3-amine], it took 13 nM to reach half-maximal inhibition in the data set on Aβ42 (IC50). This IC50 and that of the compound before are within 1.5-fold of each other.
Same read-out and setting: to `COc1nc(-c2cc(C)c(N[C@@H](C)c3ccc(F)c(C(F)(F)F)c3)nn2)ccc1-n1cnc(C)c1` [Example 53, (S)—N-(1-(4-fluoro-3-(trifluoromethyl)phenyl)ethyl)-6-(6-methoxy-5-(4-methyl-1H-imidazol-1-yl)pyridin-2-yl)-4-methylpyridazin-3-amine] belongs 9.8 nM; to `COc1nc(-c2cc(C(C)C)c(N[C@@H](C)c3ccccc3)nn2)ccc1-n1cnc(C)c1` [Example 14, (S)-4-isopropyl-6-(6-methoxy-5-(4-methyl-1H-imidazol-1-yl)pyridin-2-yl)-N-(1-phenylethyl)pyridazin-3-amine], 7.2 nM.
Turning to `COc1nc(-c2cc(C)c(NCCCc3ccc(F)cc3)nn2)ccc1-n1cnc(C)c1` [Example 73, N-(3-(4-fluorophenyl)propyl)-6-(6-methoxy-5-(4-methyl-1H-imidazol-1-yl)pyridin-2-yl)-4-methylpyridazin-3-amine], the melting point was in the range of 204 to 206 °C. The compound also yielded an IC50 in the data set on Aβ42 of 26 nM.
In turn, `COc1nc(-c2cc(C)c(N[C@@H](C)c3cc(C(F)(F)F)cc(C(F)(F)F)c3)nn2)ccc1-n1cnc(C)c1` [Example 43, (S)—N-(1-(3,5-bis(trifluoromethyl)phenyl)ethyl)-6-(6-methoxy-5-(4-methyl-1H-imidazol-1-yl)pyridin-2-yl)-4-methylpyridazin-3-amine] had an IC50 in the data set with Aβ42 of 7.5 nM. That is a single-digit nanomolar value.
Same read-out and setting: to `COc1nc(-c2cc(C)c(N[C@@H](C)C(C)(C)C)nn2)ccc1-n1cnc(C)c1` [Example 76, (S)—N-(3,3-dimethylbutan-2-yl)-6-(6-methoxy-5-(4-methyl-1H-imidazol-1-yl)pyridin-2-yl)-4-methyl pyridazin-3-amine] belongs 29 nM; to `CCc1cc(-c2ccc(-n3cnc(C)c3)c(OC)n2)nnc1N[C@@H](C)c1ccccc1` [Example 7, (S)-4-ethyl-6-(6-methoxy-5-(4-methyl-1H-imidazol-1-yl)pyridin-2-yl)-N-(1-phenylethyl)pyridazin-3-amine], 5.5 nM.
On the same count and under the same terms, to `COc1nc(-c2cc(C)c(N[C@@H](C)c3c(F)cc(F)cc3F)nn2)ccc1-n1cnc(C)c1` [Example 75, (S)-6-(6-methoxy-5-(4-methyl-1H-imidazol-1-yl)pyridin-2-yl)-4-methyl-N-(1-(2,4,6-trifluorophenyl)ethyl)pyridazin-3-amine] belongs 3.5 nM.

As a reminder, the melting point is the temperature of the solid-liquid transition. For orientation: IC50 means the concentration that gives 50% inhibition.
